Experiments:
Ba/F3-KIF5B-RET = test: Cell proliferation (Celltiter-Glo), Ba/F3-KIF5B-RET; format: cell-based; details: anti-proliferative, read-out: IC50 (nM, mean ± SD)
Experimental: (§1) Ba/F3-KIF5B-RET, Ba/F3-CCDC6-RET, Ba/F3-KIF5B-RET-V804L, Ba/F3-KIF5B-RET-V804M, Ba/F3-KIF5B-RET-G810R, and Ba/F3-KIF5B-RET-G810S cells were provided by Kyinno Biotechnology Co., Ltd. The cells were cultured in RPMI 1640 (Biological Industries, Israel) supplemented with 10% fetal bovine serum (Biological Industries, Israel) and 1% Penicillin/Streptomycin solution (Corning, United States). They were incubated at 37 °C in a humidified atmosphere containing 5% CO2, and cell proliferation was evaluated using the Celltiter-Glo luminescent cell viability assay.

Ba/F3-KIF5B-RET-V804L = test: Cell proliferation (Celltiter-Glo), Ba/F3-KIF5B-RET-V804L; format: cell-based; details: anti-proliferative, read-out: IC50 (nM, mean ± SD)
Experimental: as §1

Ba/F3-KIF5B-RET-G810R = test: Cell proliferation (Celltiter-Glo), Ba/F3-KIF5B-RET-G810R; format: cell-based; details: anti-proliferative, read-out: IC50 (nM, mean ± SD)
Experimental: as §1

Ba/F3-CCDC6-RET = test: Cell proliferation (Celltiter-Glo), Ba/F3-CCDC6-RET; format: cell-based; details: BaF3/CCDC6-RET, anti-proliferative, read-out: IC50 (nM, mean ± SD)
Experimental: as §1

Ba/F3-KIF5B-RET-G810S = test: Cell proliferation (Celltiter-Glo), Ba/F3-KIF5B-RET-G810S; format: cell-based; details: anti-proliferative, read-out: IC50 (nM, mean ± SD)
Experimental: as §1

Ba/F3-KIF5B-RET tumor = test: Ba/F3-KIF5B-RET xenograft mouse model; format: in vivo; details: 3 mg/kg p.o. BID, B-NDG mice
[1] = tested on: Ba/F3-KIF5B-RET-V804L tumor; test: Ba/F3-KIF5B-RET-V804L xenograft mouse model; format: in vivo; details: 3 mg/kg p.o. BID, NPSG mice
[2] = tested on: Ba/F3-KIF5B-RET-G810R tumor; test: Ba/F3-KIF5B-RET-G810R xenograft mouse model; details: 10 mg/kg p.o. BID days 0–16, NOD SCID mice
[3] = tested on: Ba/F3-KIF5B-RET-G810S tumor; test: Ba/F3-KIF5B-RET-G810S xenograft mouse model; format: in vivo; details: 10 mg/kg p.o. BID, NOD SCID mice
Ba/F3-KIF5B-RET-V804M = test: Cell proliferation (Celltiter-Glo), Ba/F3-KIF5B-RET-V804M; format: cell-based; details: anti-proliferative, read-out: IC50 (nM, mean ± SD)
Experimental: as §1

IC50 (Ba/F3-KIF5B-RET): 11.5 ± 4.31 nM | IC50 (Ba/F3-KIF5B-RET-V804L): 16.2 ± 3.22 nM | IC50 (Ba/F3-KIF5B-RET-G810R): 734 ± 56.1 nM | IC50 (Ba/F3-CCDC6-RET): 70.3 ± 0.91 nM | IC50 (Ba/F3-KIF5B-RET-G810S): 125 ± 19.7 nM | IC50 (Ba/F3-KIF5B-RET-V804M): 65.3 ± 20.7 nM
Structure (SMILES): COc1ccc(CN2C3CC2CN(c2ccc(-c4cc(OCC(C)(C)O)cn5ncc(C#N)c45)cn2)C3)cn1 [Selpercatinib]
tumor growth inhibition (TGI) (Ba/F3-KIF5B-RET tumor): 57.06% | TGI [1]: 79.48% | TGI [2]: 35.37% | TGI [3]: 82.15%

Source: article PMC12571850 (Frontiers in Pharmacology, 2025)
